{
  "source": "paper PMC11579945",
  "about": "“Identification of Potential Inhibitors of Mycobacterium tuberculosis Amidases: An Integrated In Silico and Experimental Study” (ACS Omega, 2024)",
  "key": {"Ami1 [1]": {"molecular_target": "T1, Ami1 (Mycobacterium tuberculosis, UniProt I6Y4D2)", "T1 sequence (I6Y4D2 25-241 limits assumed)": "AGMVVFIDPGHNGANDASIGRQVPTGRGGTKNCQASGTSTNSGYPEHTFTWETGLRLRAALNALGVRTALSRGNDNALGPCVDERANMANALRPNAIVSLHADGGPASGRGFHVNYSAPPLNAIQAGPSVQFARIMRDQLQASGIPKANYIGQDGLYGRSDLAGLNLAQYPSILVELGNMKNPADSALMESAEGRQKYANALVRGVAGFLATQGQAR", "test": "Differential scanning fluorimetry (DSF, thermal shift) with Ami1", "assay_type": "binding", "settings": "for Kd: 10 μM Ami1, fitted with Thermott, triplicate, read-out: dissociation constant (Kd); for increase of the melting temperature (Tm) of the amidase: compared to Tm of the protein in the absence of any compound", "method": "DSF assays were conducted using a QuantStudio3 real-time PCR system from Thermo Fisher Scientific, with a MicroAmp Fast 96-well reaction plate and covered with the MicroAmp Optical Adhesive Film (both from Thermo Fisher Scientific). The final reaction volume in each well was 20 μL, containing 10 μM Ami1 in buffer (20 mM HEPES pH 7.5, 100 mM NaCl, 1% DMSO) and 5× SYPRO Orange, either in the absence or presence of various concentrations of compounds. As a control, identical experiments were performed without protein. The temperature was increased from 25 to 99 °C at a gradual rate of 0.2 °C per 12.5 s. Data analysis and dissociation constants (Kd) were determined using the Thermott web application (https://thermott.com).[37],[38] Melting curves were exported from Thermott and visualized using the GraphPad Prism program. All experiments were performed by triplicate."}, "Ami1Mab": {"system": "Ami1Mab", "set-up": "method as in PMID 33158165", "settings": "cited from earlier work"}, "Ami1 [2]": {"molecular_target": "T1, Ami1", "assay_type": "binding", "settings": "ITC"}, "Ami1 [3]": {"molecular_target": "T1, Ami1", "settings": "10 mM EDTA; cited from earlier work"}},
  "note": "Values joined by “and” are separate entries in the source; they are usually repeats but may differ in a detail not shown here. Identical values can stand only once.",
  "data": [
    {"smiles": "O=C(C=Cc1ccccc1)NNc1ccc([N+](=O)[O-])cc1[N+](=O)[O-]", "note": "[1e, N′-(2,4-Dinitrophenyl)cinnamohydrazide]", "values": [
      {"measurement": "increase in Kd compared with derivates 1a–1d", "setting": "Ami1 [1]; DSF", "result": 10, "unit": "fold"},
      {"measurement": "Kd", "setting": "Ami1 [1]; DSF", "result": "36.1 ± 7.1", "unit": "µM"}
    ]},
    {"smiles": "Nc1ccccc1-c1nnn[nH]1", "note": "[inhibitor II]", "values": [
      {"measurement": "concentration from which inhibition of the hydrolytic activity of Ami1Mab was observed", "setting": "Ami1Mab", "result": "≥ 800", "unit": "µM"}
    ]},
    {"smiles": "Ic1ccccc1-c1nn[nH]n1", "note": "[compound 5]", "values": [
      {"measurement": "ΔGb", "setting": "Ami1 [2]; 25 °C, pH 7.5", "result": "–6.02 kcal/mol"},
      {"measurement": "ΔHb", "setting": "Ami1 [2]; 25 °C, pH 7.5", "result": "–0.37 ± 0.08 kcal/mol"},
      {"measurement": "n (stoichiometry)", "setting": "Ami1 [2]; single binding-site model", "result": "0.7 and 0.7 ± 0.1"},
      {"measurement": "Kd", "setting": "Ami1 [1]; DSF", "result": "39 ± 6.1", "unit": "µM"},
      {"measurement": "increase of the melting temperature (Tm) of the amidase", "setting": "Ami1 [1]", "result": "approximately 2 °C"}
    ]},
    {"smiles": "O=C(NNc1ccc([N+](=O)[O-])cc1[N+](=O)[O-])c1ccccc1", "note": "[1a, N′-(2,4-Dinitrophenyl)benzohydrazide]", "values": [
      {"measurement": "Kd", "setting": "Ami1 [1]; DSF", "result": "2.71 ± 0.55", "unit": "µM"}
    ]},
    {"smiles": "O=C(NNc1ccc([N+](=O)[O-])cc1[N+](=O)[O-])C1CC1", "note": "[1f, N′-(2,4-Dinitrophenyl)cyclopropanecarbohydrazide]", "values": [
      {"measurement": "interaction with Ami1", "setting": "Ami1 [1]; DSF dose-response", "result": "no interaction"}
    ]},
    {"smiles": "O=C(NNc1ccc([N+](=O)[O-])cc1[N+](=O)[O-])C1CC1c1ccccc1", "note": "(stereo not shown) [compound 1]", "values": [
      {"measurement": "Kd", "setting": "Ami1 [1]; DSF", "result": "6.69 ± 0.79", "unit": "µM"},
      {"measurement": "increase of the melting temperature (Tm) of the amidase", "setting": "Ami1 [1]", "result": "approximately 2 °C"}
    ]},
    {"smiles": "COc1ccc(C(=O)NNc2ccc([N+](=O)[O-])cc2[N+](=O)[O-])cc1", "note": "[1b, N′-(2,4-Dinitrophenyl)-4-methoxybenzohydrazide]", "values": [
      {"measurement": "Kd", "setting": "Ami1 [1]; DSF", "result": "4.27 ± 1.13", "unit": "µM"}
    ]},
    {"smiles": "O=C(NNc1ccc([N+](=O)[O-])cc1[N+](=O)[O-])c1ccc(Cl)cc1", "note": "[1c, 4-Chloro-N′-(2,4-dinitrophenyl)benzohydrazide]", "values": [
      {"measurement": "Kd", "setting": "Ami1 [1]; DSF", "result": "9.07 ± 1.88", "unit": "µM"}
    ]},
    {"smiles": "O=C(O)CN(CCN(CC(=O)O)CC(=O)O)CC(=O)O", "note": "[EDTA]", "values": [
      {"measurement": "hydrolytic activity of Ami1 after treatment", "setting": "Ami1 [3]", "result": "abolished"}
    ]},
    {"smiles": "O=C(NNc1ccc([N+](=O)[O-])cc1[N+](=O)[O-])c1ccc(F)cc1", "note": "[1d, N′-(2,4-Dinitrophenyl)-4-fluorobenzohydrazide]", "values": [
      {"measurement": "Kd", "setting": "Ami1 [1]; DSF", "result": "1.65 ± 0.39", "unit": "µM"}
    ]}
  ]
}
